Measurements published in US4921858A, “7-deazaguanines as immunomodulators” (Warner-Lambert Company, priority 1989, dated 1990).

How the values were obtained:
[1] = tested on: rejection of skin graft; settings: dogs; cited from earlier work
[2] = biological target: T1, purine nucleoside phosphorylase (PNP-4) (Homo sapiens, UniProt P00491); assay: PNP-4 enzyme assay, radiochemical, formation of [14C]hypoxanthine from [14C]inosine; format: biochemical; settings: human erythrocyte enzyme
T1 construct: using human erythrocyte as the enzyme source; from tissue; host or cells: human erythrocyte
T1 sequence (P00491 1-289): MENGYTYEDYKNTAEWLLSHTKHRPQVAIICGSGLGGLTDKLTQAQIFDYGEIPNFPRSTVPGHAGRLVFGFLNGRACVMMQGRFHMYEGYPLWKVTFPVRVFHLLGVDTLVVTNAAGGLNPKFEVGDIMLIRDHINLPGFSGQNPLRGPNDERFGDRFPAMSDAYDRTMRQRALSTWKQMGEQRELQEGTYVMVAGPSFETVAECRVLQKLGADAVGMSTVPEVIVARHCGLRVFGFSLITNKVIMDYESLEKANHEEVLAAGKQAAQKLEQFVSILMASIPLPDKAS
Description: In the purine nucleoside phosphorylase (PNP-4) enzyme assay, an IC50 is achieved at a dose of 1.0 micromoles on a selected compound of the present invention. PNP-4 activity for the compound of formula I is measured radiochemically by measuring the formation of [^14 --C]hypoxanthine from [^14 --C]inosine [Biomedicine, 33, 39 (1980)] using human erythrocyte as the enzyme source.

[3] = tested on: B-cell; assay: HTBA-1 B-cell toxicity in the presence of 2'-deoxyguanosine; format: cell-based; settings: in the presence of the same amount of 2'-deoxyguanosine
[4] = tested on: T-cells; assay: HTBA-1 T-cell cytotoxicity in the presence of 2'-deoxyguanosine; format: cell-based

| SMILES | inhibiting rejection of skin graft [1] | IC50 [2] | toxicity to B-cell [3] | IC50 ([4]; T-cell, + 10 μM 2'-deoxyguanosine, read-out: HTBA-1 T-Cell + 10 μM 2'-d Gua, IC50) | selective cytotoxicity for T-cells ([4]; in the presence of 2'-deoxyguanosine, at a similar concentration range) |
| --- | --- | --- | --- | --- | --- |
| Nc1nc2c(nc(N)n2[C@@H]2O[C@H](CO)[C@@H](O)[C@H]2O)c(=O)[nH]1 [8-Aminoguanosine] | efficacious for inhibiting rejection of skin graft in dogs |  |  |  |  |
| Nc1nc2c(ccn2Cc2cccs2)c(=O)[nH]1 [Example 2, 2-Amino-7-(2-thienylmethyl)-4-pyrrolo[2,3-d]pyrimidone] |  | 1000 nM | nontoxic to B-cell | 2300 nM | selectively cytotoxic for T-cells |
